Test results published in ChEMBL document CHEMBL1145388, “Pyridazinoquinolinetriones as NMDA glycine-site antagonists with oral antinociceptive activity in a model of neuropathic pain” (J Med Chem, 2007).

Columns and labels:
physchem = conditions: octanol/water, pH 7.4
in vivo = conditions: Sprague-Dawley, rat, po, 10 mg/kg

logD (physchem) | bioavailability at 24 h (in vivo) [%] | Compound
1.9 | – | CC(C#Cc1ccsc1)n1[nH]c(=O)c2[nH]c3cc(Cl)ccc3c(=O)c2c1=O (stereo not drawn)
2.4 | – | CC(C#Cc1cccs1)n1[nH]c(=O)c2[nH]c3cc(Cl)ccc3c(=O)c2c1=O (stereo not drawn)
1.4 | 28 | Cc1ccsc1Cn1[nH]c(=O)c2[nH]c3cc(Cl)ccc3c(=O)c2c1=O
0.9 | – | CC(c1ccsc1)n1[nH]c(=O)c2[nH]c3cc(Cl)ccc3c(=O)c2c1=O (stereo not drawn)
< 0.5 | – | O=c1[nH]n(Cc2nccs2)c(=O)c2c(=O)c3ccc(Cl)cc3[nH]c12
1 | – | Cc1cc(Cn2[nH]c(=O)c3[nH]c4cc(Cl)ccc4c(=O)c3c2=O)oc1C
– | 16 | O=c1[nH]n(CC#Cc2ccccc2)c(=O)c2c(=O)c3ccc(Cl)cc3[nH]c12
1.2 | – | COCCNC(=O)c1cccc(Cn2[nH]c(=O)c3[nH]c4cc(Cl)ccc4c(=O)c3c2=O)c1
– | 12 | O=c1[nH]n(Cc2cc3ccccc3s2)c(=O)c2c(=O)c3ccc(Cl)cc3[nH]c12
1.1 | < 1 | CN(C)C(=O)Nc1ccc(Cn2[nH]c(=O)c3[nH]c4cc(Cl)ccc4c(=O)c3c2=O)cc1
< 0.5 | 40 | O=c1[nH]n(Cc2ccno2)c(=O)c2c(=O)c3ccc(Cl)cc3[nH]c12
< 0.5 | – | O=C(O)c1ccc(Cn2[nH]c(=O)c3[nH]c4cc(Cl)ccc4c(=O)c3c2=O)cc1

Second part, the compound before the results:

Compound | logD (physchem) | bioavailability at 24 h (in vivo) [%]
O=c1c2ccc(Cl)cc2[nH]c2c(O)nn(Cc3cc4ccccc4o3)c(=O)c12 | 2.1 | 25
O=c1c2ccc(Cl)cc2[nH]c2c(O)nn(Cc3ccsc3)c(=O)c12 | 1.2 | 1.2
Cc1ccc(Cn2nc(O)c3[nH]c4cc(Cl)ccc4c(=O)c3c2=O)o1 | < 0.5 | –
CS(=O)(=O)O.O=c1c2ccc(Cl)cc2[nH]c2c(O)nn(Cc3ccncc3)c(=O)c12 | < 0.3 | 5
CC(c1cc2ccccc2o1)n1[nH]c(=O)c2[nH]c3cc(Cl)ccc3c(=O)c2c1=O (stereo not drawn) | 2 | –
CC(C#Cc1ccccc1)n1[nH]c(=O)c2[nH]c3cc(Cl)ccc3c(=O)c2c1=O (stereo not drawn) | 1.4 | –
CS(=O)(=O)O.O=c1c2ccc(Cl)cc2[nH]c2c(O)nn(Cc3cnccn3)c(=O)c12 | < 0.5 | 37
COC(=O)c1ccc(Cn2nc(O)c3[nH]c4cc(Cl)ccc4c(=O)c3c2=O)cc1 | 1.17 | 7
CCC(c1ccncc1)n1[nH]c(=O)c2[nH]c3cc(Cl)ccc3c(=O)c2c1=O (racemic) | 0.6 | –
CC(c1ccncc1)n1[nH]c(=O)c2[nH]c3cc(Cl)ccc3c(=O)c2c1=O.CS(=O)(=O)O (racemic) | < 0.3 | 30
C#CC(C)n1[nH]c(=O)c2[nH]c3cc(Cl)ccc3c(=O)c2c1=O (stereo not drawn) | < 0.5 | –
COC(=O)c1ccc(C(C)n2[nH]c(=O)c3[nH]c4cc(Cl)ccc4c(=O)c3c2=O)cc1 (stereo not drawn) | 1.3 | –
